Experiments:
[1] = tested on: soluble CD13 from human serum (sCD13); test: Competitive ELISA of sCD13 binding to mAb WM15; details: plates coated with mAb WM15 5 μg/mL, human serum diluted 1:2, 2 h, room temperature
Description: Fig. 4 The active site of membrane CD13 expressed by HUVEC, but not that of soluble CD13 or membrane CD13 expressed by HL60 cells, is accessible to G4-TNF. A Competitive effects of G4 and G4-TNF on the binding of mAb WM15 (anti-CD13) to sCD13 or rCD13 showing the lack of binding of G4-TNF to natural and recombinant soluble CD13 (sCD13 and rCD13). G4, scrambled G4 (GCRSNCYRVG), and TNF were used as positive (G4) and negative (scrambled G4, TNF) controls. The sCD13 competition assay was performed as follows: microplates were coated with mAb WM15 (5 μg/mL) in DPBS and incubated overnight at 4 °C. […] The mixtures were incubated for 2 h at room temperature and washed with DPBS. To detect bound sCD13, we added an anti-CD13 rabbit polyclonal antibody (1:1000, 1 h at room temperature), washed with DPBS, and added peroxidase-labeled goat anti-rabbit secondary antibody (1:2000, 1 h). Bound peroxidase was detected using o-phenylendiamine chromogenic substrate. The absorbance of o-phenylenediamine was measured at 490 nm using an ELISA plate reader (Bio-Rad). Cumulative results of two independent experiments, each performed in duplicate, are shown (mean ± SEM). The rCD13 competition assay was performed as described in Supplementary Fig. S2 (one experiment in duplicate, mean ± SEM). […]

HUVEC = test: Cytotoxicity assay on adherent and non-adherent HUVEC; assay type: cell-based, human; details: adherent and non-adherent cells, concentrations lower than 100 pg/ml, 24 h, MTT
Description: The supernatant was removed using a Pasteur pipet connected to a vacuum pump, and 200 µL of dimethyl sulfoxide was then added to each well to dissolve the formazan crystals. The absorbance at 570 nm was then read using a microtiter plate reader.
The cytotoxicity assay with cell in suspension was carried out following the same protocol except that the overnight incubation of the microtiter plate after cell plating was omitted.

CD13 expressed in HUVEC = test: Inhibition of cell-associated CD13 enzymatic activity, HUVEC; assay type: cell-based, human; details: 3 × 10^5 cells/well, L-alanine p-nitroanilide, 30 min, 37 °C, absorbance 405 nm
Description: Fig. 5 Quantification of CD13 expressed by HL-60 and HUVEC by western blotting and FACS analyses, and determination of their enzymatic activity. A Western blotting (WB) analysis of CD13 expression in HL-60 cells and HUVEC. For both cell lines, 2 µg of cell lysates were loaded in each well (n = 4–5 replicates, as indicated). After blotting, the membrane was cut and analyzed for CD13 and actin expression as described in Material and methods. The results of one representative experiment, out of three independent experiments performed, are shown (bars, ratio of CD13/actin band intensity, mean ± SEM). Recombinant human CD13 (rCD13) (20 ng) was loaded as positive control. MW, molecular weight markers. B FACS analysis of CD13 expression in HUVEC and HL-60 cells. The cells were incubated with mAb WM15 (10 μg/mL) and stained with a FITC-labeled goat anti-mouse IgG (H + L) secondary antibody. Data were expressed as fluorescence intensity and normalized to the number of cells. The cumulative results of three independent experiments are shown (each performed in duplicate; mean ± SEM). C Enzyme activity assay of CD13 expressed in HUVEC and HL-60 cells. […] Absorbance at 405 nm was measured using a plate reader. The enzyme units in each sample were calculated using rCD13 as a standard and were normalized to the number of cells. […] The absorbance was measured at 405 nm using a plate reader. […]

VGCARRYCS-TNF [G4-TNF, recombinant murine TNF fused to the C-terminus of G4]
Competition of sCD13 binding to mAb WM15 (in words) [1]: no competition was observed | Cytotoxic effects on HUVEC (in words) (HUVEC): No or minimal cytotoxic effects | Inhibition of CD13 enzymatic activity associated with HUVEC (in words) (CD13 expressed in HUVEC): did not inhibit
